Square brackets hold non-standard residues; d marks the D form. Peptide text beside a SMILES is read from it. Cya = N[C@@H](CS(=O)(=O)O)C(=O)O
Tested on: study eye of subjects with intermediate non-exudative AMD
Assay: SD-OCT Analysis 2 (thickness, volume, map coverage of retinal layers)
Format: in vivo, human
Description: Numerous study assessments were conducted at various time points throughout the study. Included among these study assessments were; refractive eye examinations, determinations of BCVA AND low-luminance BCVA, Lanthony D-15 color vision test, measurement of intraocular pressure (IOP), Indirect ophthalmoscopy/dilated fundus examinations and spectral-domain optical coherence tomography (SD-OCT). Also, blood and saliva samples were obtained from each subject for genetic analysis. The above-listed study assessments were performed at the time points indicated in Table 1, below: The OCT scans were analyzed by two (2) unrelated experts. In Analysis #2, the OCT images of study eyes were analyzed to determine mean thickness and mean volume of numerous retinal subfields and layer segments at baseline and at Week 12 for sham eyes and at baseline and at Week 32 for risuteganib eyes, to document any significant differences between groups of eyes based on baseline measurements or changes from baseline in those measurements. In addition to the quantitative analysis of OCT images, OCT Analysis #2 included qualitative assessment of the OCT images to identify GA, pseudodrusen, and disruption of the ELM and EZ layers. FIGS. 9A, 9B and 9C illustrate the level of varying pathology within the ELM based on quantitative mapping that were also assessed, with FIG. 9A (left) showing no ELM disruption, FIG. 9B (center) showing segmental disruption, and FIG. 9C showing diffuse disruption.

[1] = change from baseline at Week 32, risuteganib super-responder eyes, n = 8
[2] = paired change from baseline at Week 32, risuteganib arm n = 24
[3] = paired difference from baseline at Week 32, risuteganib arm n = 24

## C[C@@H](O)[C@H](NC(=O)[C@H](CS(=O)(=O)O)NC(=O)CNC(=O)[C@H](CCCNC(=N)N)NC(=O)CN)C(=O)N1CCC[C@H]1C(=O)O [risuteganib, Glycyl-L-arginylglycyl-3-sulfo-L-alanyl-L-threonyl-L-proline] (H-GRG[Cya]TP-OH)
[1]
  Change in mean thickness, ELM-RPE mid subfield: −2.493 μm
  Change in mean thickness, EZ-RPE central subfield: −1.803 μm
  Change in mean thickness, EZ-RPE foveal center: 6.825 μm
  Change in mean thickness, EZ-RPE mid subfield: −1.445 μm
  Change in mean thickness, Inner retina central subfield: 8.759 μm
  Change in mean thickness, Inner retina mid subfield: 8.511 μm
  Change in mean thickness, ONL-EZ central subfield: −9.158 μm
  Change in mean thickness, ONL-EZ mid subfield: −8.556 μm
  Change in mean thickness, ONL-RPE central subfield: −10.961 μm
  Change in mean thickness, ONL-RPE foveal center: −6.825 μm
  Change in mean thickness, ONL-RPE mid subfield: −10.001 μm
  Change in mean thickness, RPE-BM central subfield: −11.226 μm
  Change in mean thickness, RPE-BM foveal center: −14.381 μm
  Change in mean thickness, RPE-BM mid subfield: −6.715 μm
  Change in mean thickness, Total retinal central subfield: −2.202 μm
  Change in mean thickness, Total retinal foveal center: −7.569 μm
  Change in mean thickness, Total retinal mid subfield: −1.490 μm
  Change in volume, ELM-EZ central subfield: −0.001 mm^3
  Change in volume, ELM-EZ mid subfield: −0.003 mm^3
  Change in volume, ELM-RPE: 0.171 mm^3
  Change in volume, ELM-RPE central subfield: −0.003 mm^3
  Change in volume, ELM-RPE mid subfield: −0.008 mm^3
  Change in volume, EZ-RPE: −0.051 mm^3
  Change in volume, EZ-RPE central subfield: −0.001 mm^3
  Change in volume, EZ-RPE mid subfield: −0.005 mm^3
  Change in volume, ONL-EZ central subfield: −0.007 mm^3
  Change in volume, ONL-EZ mid subfield: −0.027 mm^3
  Change in volume, ONL-RPE: 0.044 mm^3
  Change in volume, ONL-RPE central subfield: −0.008 mm^3
  Change in volume, ONL-RPE mid subfield: −0.032 mm^3
  Change in volume, RPE-BM: −0.048 mm^3
  Change in volume, RPE-BM central subfield: −0.009 mm^3
  Change in volume, RPE-BM mid subfield: −0.021 mm^3
  Change in volume, Total retinal: −0.247 mm^3
  Change in volume, Total retinal central subfield: −0.001 mm^3
  Change in volume, Total retinal mid subfield: −0.005 mm^3
  Map coverage, 0 μm EZ: 5.026%
  Map coverage, 0 μm RPE-BM: 1.546%
  Map coverage, 10 μm EZ: 5.037%
  Map coverage, 20 μm EZ: 4.506%
  Map coverage, 50 μm RPE-BM: −3.222%
  Map coverage, 150 μm RPE-BM: 2.943%
  Map coverage, 250 μm RPE-BM: −0.017%
[2]
  Change in mean (SD) thickness, ELM-EZ central subfield: −1.827 μm
  Change in mean (SD) thickness, ELM-EZ mid subfield: −0.106 μm
  Change in mean (SD) thickness, ELM-RPE central subfield: −2.912 μm
  Change in mean (SD) thickness, ELM-RPE foveal center: −6.094 μm
  Change in mean (SD) thickness, ELM-RPE mid subfield: −1.593 μm
  Change in mean (SD) thickness, EZ-RPE central subfield: −1.085 μm
  Change in mean (SD) thickness, EZ-RPE foveal center: −0.407 μm
  Change in mean (SD) thickness, EZ-RPE mid subfield: −1.486 μm
  Change in mean (SD) thickness, Inner retina central subfield: 3.880 μm
  Change in mean (SD) thickness, Inner retina mid subfield: 3.893 μm
  Change in mean (SD) thickness, ONL-EZ central subfield: −6.131 μm
  Change in mean (SD) thickness, ONL-EZ mid subfield: −4.954 μm
  Change in mean (SD) thickness, ONL-RPE central subfield: −7.216 μm
  Change in mean (SD) thickness, ONL-RPE foveal center: −3.488 μm
  Change in mean (SD) thickness, ONL-RPE mid subfield: −6.441 μm
  Change in mean (SD) thickness, RPE-BM central subfield: −4.178 μm
  Change in mean (SD) thickness, RPE-BM foveal center: −8.126 μm
  Change in mean (SD) thickness, RPE-BM mid subfield: −2.086 μm
  Change in mean (SD) thickness, Total retinal central subfield: −3.336 μm
  Change in mean (SD) thickness, Total retinal foveal center: −4.154 μm
  Change in mean (SD) thickness, Total retinal mid subfield: −2.548 μm
  Change in volume, ELM-EZ central subfield: −0.001 mm^3
  Change in volume, ELM-EZ mid subfield: 0.000 mm^3
  Change in volume, ELM-RPE: 0.048 mm^3
  Change in volume, ELM-RPE central subfield: −0.002 mm^3
  Change in volume, ELM-RPE mid subfield: −0.005 mm^3
  Change in volume, EZ-RPE: −0.027 mm^3
  Change in volume, EZ-RPE central subfield: −0.001 mm^3
  Change in volume, EZ-RPE mid subfield: −0.005 mm^3
  Change in volume, ONL-EZ central subfield: −0.005 mm^3
  Change in volume, ONL-EZ mid subfield: −0.016 mm^3
  Change in volume, ONL-RPE: −0.009 mm^3
  Change in volume, ONL-RPE central subfield: −0.005 mm^3
  Change in volume, ONL-RPE mid subfield: −0.020 mm^3
  Change in volume, RPE-BM: −0.006 mm^3
  Change in volume, RPE-BM central subfield: −0.003 mm^3
  Change in volume, RPE-BM mid subfield: −0.007 mm^3
  Change in volume, Total retinal: −0.048 mm^3
  Change in volume, Total retinal central subfield: −0.002 mm^3
  Change in volume, Total retinal mid subfield: −0.008 mm^3
[3]
  Map coverage, 0 μm EZ: 2.574%
  Map coverage, 0 μm RPE-BM: 1.282%
  Map coverage, 10 μm EZ: 2.515%
  Map coverage, 20 μm EZ: 2.431%
  Map coverage, 50 μm RPE-BM: −2.644%
  Map coverage, 150 μm RPE-BM: 2.739%
  Map coverage, 250 μm RPE-BM: −0.006%

Source: patent US20220031800A1, “PEPTIDES FOR TREATING NON-EXUDATIVE MACULAR DEGENERATION AND OTHER DISORDERS OF THE EYE” (Allegro Pharmaceuticals, LLC, priority 2019, published 2022)
